Results from patent US8992960B2, “Multifunctional silica-based compositions and gels, methods of making them, and methods of using them” (University of Florida Research Foundation, Inc., priority 2010, dated 2015).

Assay: Reactivity of DMDS towards Cu(II) ions (odor over time)
Type: physicochemical
Settings: in CuSiNG; preliminary results, characteristic odor over time
Method: Unlike SiNG, the physico-chemical environment of DMDS in CuSiNG is expected to be somewhat different due to presence of Cu (II) ions. […] However, the DMDS electron-rich sulfur atom has the ability to weakly interact with electron-deficient Cu(II) ion. This could further facilitate adsorption of DMDS into CuSiNG. Thorough FT-IR studies are performed to understand the nature of intermolecular interactions that exist between DMDS and SiNG. In addition, thermogravimetric analysis (TGA), calorimetry and QCM sensing studies to obtain DMDS loading/release characteristics (isotherms) against CuSiNG and SiNG materials will be used to determine the role of Cu II ions in DMDS loading. A comparative isotherm data analysis along with FT-IR analysis will reveal the effect of Cu in DMDS loading/release process.

## CSSC [DMDS, dimethyl disulfide]
  reactivity to Cu(II) ions: non-reactive to Cu(II) ions
